# Reference: patent EP4703365A1, “QUINOLONE DERIVATIVE AND USE THEREOF AGAINST TUMORS” (Horizon Omics Biotech Limited, priority 2023, dated 2024)
# Legend:
# [1] = molecular target: hERG (Homo sapiens, UniProt Q12809); assay: hERG cardiotoxicity assay (patch clamp, hERG stably expressed HEK 293 cell line); type: cell-based; conditions: 5 doses applied cumulatively
# Protocol: • 1) The hERG stably expressed HEK 293 cell line (Cat# K1236) was purchased from Invitrogen. Cells were cultured in a medium consisting of 85% DMEM, 10% FBS, 0.1 mM NEAA, 25 mM HEPES, 100 U/mL penicillin-streptomycin, 5 µg/mL Blasticidin, and 400 µg/mL Geneticin. Cells were passaged approximately three times a week using TrypLE™ Express and maintained at ~40% to ~80% confluency. Before assay, cells were placed on coverslips with 5×10^5 cells per 6-cm cell culture dish and induced with 1 µg/mL doxycycline for 48 hours. • 2) The coverslip was removed from the cell culture dish and placed on the microscope stage. A suitable cell was located using a 10× objective. The tip of the electrode was located under the microscope using the 10× objective, and the focus was adjusted to the plane of the cell. Once the tip was in focus, the coarse control of the manipulator was used to advance the electrode downward toward the cell while moving the objective to keep the tip in focus. When directly above the cell, the objective was switched to 40× objective, and the fine control of the manipulator was used to approach the cell surface in small steps. • 3) A blank control was first performed to establish a baseline. […] In the presence of the test compounds, the hERG current was recorded for approximately 5 minutes to reach a steady state, followed by capturing 5 scans. For dose-response testing, 5 doses of the test compounds were cumulatively applied to the cells from low to high concentrations. The positive control, dofetilide at a concentration of 150 nM, was applied to each cell, and the hERG current was measured in the test compounds at the highest concentration as a negative control to normalize the percentage of inhibition. To ensure good performance of the cultured cells and operations, cells from the same batch were also tested with 5 doses of dofetilide. Table 4. hERG Toxicity Assay Results
# [2] = system: solid tumors; conditions: NCT02719977, solid tumors in humans; cited from earlier work
# [3] = system: MDA-MB-436; assay: Cell activity assay (CellTiterGlo, 6 days), BRCA1 gene-deficient MDA-MB-436 cells; type: cell-based; conditions: Homo sapiens, 144 h, BRCA1 gene-deficient MDA-MB-436, 6 days incubation
# Protocol: (§1) • (1) Compound Treatment • a) Preparation of Stock Solutions of Compounds Test compounds were dissolved in DMSO at a concentration of 10 mM or 5 mM, and Olaparib was dissolved in DMSO at a concentration of 10 mM. • b) Compound Storage All compounds dissolved in DMSO were stored in a desiccator at room temperature for short-term storage and transferred to a -20°C refrigerator for long-term storage. • c) Preparation of Working Concentrations of Compounds
# (§2) Test compounds were serially diluted in DMSO at a 3-fold gradient to prepare 10 concentration gradients, starting from 10 µM.
# (§3) Olaparib was serially diluted in DMSO at a 3-fold gradient to prepare 10 concentration gradients, starting from 10 µM.
# (§4) The 384-well plate loaded with the compounds was centrifuged at 1000 rpm for 1 minute.
# (§5) • a) Cells were added to the culture medium and incubated in a cell culture incubator at 37°C with 5% CO2. • b) 40 µL of BRCA1- or BRCA2-deficient cells were added to a 384-well plate and incubated overnight at 37°C with 5% CO2. • c) The test compounds were prepared at different concentration gradients on the master plate, and 80 nL of the test compounds and Olaparib were taken from the master plate and added to the 384-well plate containing cells, and incubated at 37°C with 5% CO2 for 6 days. • d) CellTiterGlo (30 µL per well) was added to the 384-well plate, and after incubation at room temperature in the dark for 30 minutes, measurement was performed using an Envision plate reader.
# (§6) • a) GraphPad Prism software was used to calculate the ICso and plot the activity curves as a function of concentration. • b) The inhibition of cell activity by the compounds was calculated using the following formula: % Inhibition = [1−(Cmpd−Blank)/(DMSO−Blank)]* 100 [formula]
# [4] = system: DLD1 BRCA2^-/-; assay: Cell activity assay (CellTiterGlo, 6 days), BRCA2 gene knockout DLD1 cancer cells; type: cell-based; conditions: Homo sapiens, DLD-1, 144 h, 6 days incubation
# Protocol: as §1, §2, §3, §4, §5, §6
# [5] = system: UWB1.289 Cells; assay: Cell activity assay (CellTiterGlo, 6 days), BRCA1 gene-deficient ovarian cancer cells UWB1.289; type: cell-based; conditions: UWB1289, 144 h, BRCA1 gene-deficient ovarian cancer cells UWB1.289, 6 days incubation
# Protocol: as §1, §2, §3, §4, §5, §6
# hERG, sequence (Q12809 whole entry): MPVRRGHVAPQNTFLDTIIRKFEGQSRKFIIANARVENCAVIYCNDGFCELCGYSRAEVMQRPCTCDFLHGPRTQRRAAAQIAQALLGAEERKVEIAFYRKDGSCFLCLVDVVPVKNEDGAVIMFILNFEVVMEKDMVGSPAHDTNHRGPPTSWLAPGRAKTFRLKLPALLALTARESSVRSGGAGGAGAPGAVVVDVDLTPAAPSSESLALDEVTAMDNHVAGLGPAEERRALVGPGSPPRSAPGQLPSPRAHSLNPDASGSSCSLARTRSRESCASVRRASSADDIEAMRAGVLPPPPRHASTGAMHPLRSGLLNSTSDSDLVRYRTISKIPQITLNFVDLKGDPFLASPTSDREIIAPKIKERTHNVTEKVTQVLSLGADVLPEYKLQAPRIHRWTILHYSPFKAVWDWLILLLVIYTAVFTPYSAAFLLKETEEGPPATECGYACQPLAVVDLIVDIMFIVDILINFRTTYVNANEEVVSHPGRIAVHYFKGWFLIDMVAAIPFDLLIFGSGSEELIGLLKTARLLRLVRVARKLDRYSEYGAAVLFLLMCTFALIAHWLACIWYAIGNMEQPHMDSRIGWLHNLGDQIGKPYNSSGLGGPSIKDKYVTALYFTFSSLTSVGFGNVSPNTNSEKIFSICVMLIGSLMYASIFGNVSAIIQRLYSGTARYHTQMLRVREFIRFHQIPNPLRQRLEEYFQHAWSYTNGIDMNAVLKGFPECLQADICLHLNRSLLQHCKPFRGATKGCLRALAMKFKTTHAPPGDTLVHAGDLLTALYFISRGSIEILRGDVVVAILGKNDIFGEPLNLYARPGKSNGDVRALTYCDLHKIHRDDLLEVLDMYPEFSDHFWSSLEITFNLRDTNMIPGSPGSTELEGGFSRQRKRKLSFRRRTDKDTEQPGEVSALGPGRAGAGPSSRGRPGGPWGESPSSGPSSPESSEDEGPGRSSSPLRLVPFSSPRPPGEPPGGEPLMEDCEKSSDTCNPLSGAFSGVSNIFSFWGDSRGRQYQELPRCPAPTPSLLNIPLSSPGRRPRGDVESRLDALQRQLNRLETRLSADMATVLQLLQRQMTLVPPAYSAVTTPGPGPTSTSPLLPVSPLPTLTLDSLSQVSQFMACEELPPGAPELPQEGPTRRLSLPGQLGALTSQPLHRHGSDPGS
SMILES,IC50 [1],adverse effects observed [2],IC50 [3],IC50 [4],IC50 [5]
Cc1cnc(CNC(=O)c2c(=O)c3ccc(N4CCCN(C)CC4)nc3n3c2sc2ccccc23)cn1 [CX-5461],5060 nM,"phototoxicity, neutropenia, acral erythema, and nausea",10 nM,–,–
CN1CCCN(c2ccc3c(=O)c(C(=O)NCCN4CCC4)c4sc5ccccc5n4c3n2)CC1 [Compound C],–,–,–,4.8 nM,4.9 nM
CN1CCCN(c2ccc3c(=O)c(C(=O)NCCN4CCCC4)c4sc5ccccc5n4c3n2)CC1 [Compound D],–,–,–,4.3 nM,5.8 nM
CNC(=O)c1c(=O)c2ccc(N3CCCN(C)CC3)nc2n2c1sc1ccccc12 [Compound E],–,–,7.7 nM,11 nM,39.8 nM
CN1CCCN(c2ccc3c(=O)c(C(=O)NC4CC4)c4sc5ccccc5n4c3n2)CC1 [Compound F],–,–,–,17.2 nM,40.6 nM
CN1CCCN(c2ccc3c(=O)c(C(=O)NCc4ccc(=O)[nH]n4)c4sc5ccccc5n4c3n2)CC1 [Compound G-1],> 30000 nM,–,–,32.7 nM,40.4 nM
CN1CCCN(c2ccc3c(=O)c(C(=O)NCc4n[nH]c(=O)c5ccccc45)c4sc5ccccc5n4c3n2)CC1 [Compound G-2],> 10000 nM,–,–,–,–
"O=C(c1cc(Cc2n[nH]c(=O)c3ccccc23)ccc1F)N1CCN(C(=O)C2CC2)CC1 [Olaparib, reference compound]",–,–,240 nM,–,716 nM
